# Where two headings read alike, the source gives them in different places.
# Columns and labels:
# CCL2 = experiment: Mouse CCL2 assay in MLE12 cells; assay type: cell-based; conditions: Mus musculus, MLE12, 30 h
# Source text: Cisbio mouse CCL2 assay is intended for the quantitative measurement of CCL2 in supernatant using HTRF® technology. The assay is compatible with mouse samples, and is highly specific for CCL2. CCL2 is detected in a sandwich assay format using 2 different specific antibodies, one labeled with Cryptate (donor) and the second with d2 (acceptor). The detection principle is based on HTRF® technology. When the labelled antibodies bind to the same antigen, the excitation of the donor with a light source (laser or flash lamp) triggers a Fluorescence Resonance Energy Transfer (FRET) towards the acceptor, which in turn fluoresces at a specific wavelength (665 nm). The two antibodies bind to the CCL2 present in the sample, thereby generating FRET. Signal intensity is proportional to the number of antigen-antibody complexes formed and therefore to the CCL2 concentration. • Materials: • Cells: MLE12 (Mouse Lung Epithelial cells, SV40 transformed) • Medium: DMEM/F12 (Gibco #11330057), FBS 5% (Gibco #10500064), Pen/Strep 50 U/50 μg/ml (Gibco #15070063) • Cell plates: 384-well, black/clear, TC-treated (Corning #3764) • Source plate: Labcyte LDV 384 (Labcyte #LP-0200) • Compound dilution plate: V-bottom 384-well PP plate (Greiner #781280) • Compounds: 10 mM stocks in DMSO • HTRF plates: 384-well, white, half area, non-binding (Costar #3824) • Mouse CCL2 kit: Cisbio 62MCCL2PEH • Other reagents: Trypsin/EDTA 10× (Gibco #15400054), PBS (Gibco #14190169), Resazurin (Sigma-Aldrich #199303), 1 mg/ml in PBS, TNF-α 200 μg/ml in PBS (Peprotech #300-01A) • Instruments: • Echo liquid handler (Labcyte) • Multidrop Combi (Thermo Scientific) • Sense plate reader (Hidex) Compound Handling:
# (§1) Stock solutions (10 mM in DMSO) of compounds were dispensed in V-bottom 384-well plates and the following dilutions were prepared: 10 mM and 0.05 mM. The dilutions were transferred to the source plate. Duplicate 6 points dose-response curves of compounds were nano-dispensed in cell plates (CCL2 assay) and in parallel, 11 points DR curves in duplicates were nano-dispensed for the viability assay. The plates were heat sealed and kept at RT until use.
# (§2) MLE12 cells in flasks were washed once with PBS, detached with Trypsin/EDTA, resuspended in fresh medium and counted. Cells were diluted to 3×10^5 cells/ml and seeded with Multidrop Combi in cell plates pre-dispensed with compounds, 25 μl/well (7500 cells/well). The plates were placed, one by one, in a CO2-incubator at 37° C. for 1 hour after which 25 μl/well of TNF-α (final concentration 20 ng/ml) were added. The plates were transferred back to the CO2-incubator placed in a plastic box with wet tissue in the bottom, to avoid evaporation, for 30 hours.
# After 30 hours incubation, the plates were spun down 5 minutes at 400 g, and 16 μl/well of the supernatants were transferred to the assay plate. A mCCL2 standard curve was prepared according to the kit protocol and 16 μl/well of the standards were also added to the assay plate.
# The anti-CCL2 antibody mix was prepared according to the kit protocol, and 4 μl/well were added to the assay plate. The plate was sealed and incubated over night at RT. After incubation the plate was read in Sense plate reader with Time-resolved FRET protocol (Ex330 nm/Em 620 and 665 nm). After data reduction, the delta ratios were imported to an excel template where the IC50 values were calculated.
# OGG1 = OGG1 (Homo sapiens (Human), UniProt O15527); experiment: In vitro OGG1 activity assay; assay type: biochemical; conditions: 800 pM OGG1 enzyme, 2 nM human APEX1, 10 nM 8-oxoA:C substrate
# Outline: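 Fluorescence-release assay on a duplex oligonucleotide carrying an OGG1 substrate base beside a fluorophore, quenched from the complementary strand. Excess APEX1 cleaves the abasic site left by base excision, melting the duplex and unquenching the fluorophore. Compounds in DMSO were dispensed before enzyme and substrate, and fluorescein signal was read.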
# MLE12 cells = experiment: Cell viability assay in MLE12 cells (resazurin); assay type: cell-based, mouse; conditions: Mus musculus, TNF-α 20 ng/ml, resazurin added after 24 hours culture
# Procedure: as §1, §2
# After 24 hours culture, resazurin reagent (stock 1 mg/ml in PBS) diluted 1:17 in PBS was added with Multidrop Combi, 10 μl/well, and plates were incubated for 6 hours. Plates were read in Sense plate reader with resorufin protocol (ex544 nm/em595 nm). The results were imported to an excel template where the EC50 values were calculated using XLfit.
# [1] = MLE12 cells, TNF-α 20 ng/ml, supernatant after 30 hours, HTRF, read-out: CCL2 (EC50)
# OGG1, sequence (O15527 whole entry): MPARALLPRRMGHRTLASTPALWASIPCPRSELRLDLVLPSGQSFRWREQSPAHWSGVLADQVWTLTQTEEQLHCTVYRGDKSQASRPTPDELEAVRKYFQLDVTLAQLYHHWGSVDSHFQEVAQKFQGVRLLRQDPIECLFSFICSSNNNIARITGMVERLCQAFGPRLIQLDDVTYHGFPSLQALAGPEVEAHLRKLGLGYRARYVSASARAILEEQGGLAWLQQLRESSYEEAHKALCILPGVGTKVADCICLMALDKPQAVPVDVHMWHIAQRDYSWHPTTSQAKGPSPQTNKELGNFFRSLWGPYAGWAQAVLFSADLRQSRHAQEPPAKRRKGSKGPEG
Compound,EC50 (CCL2; [1]),IC50 (OGG1),"IC50 (MLE12 cells; MLE12, 24 h)","EC50 (CCL2; read-out: CCL2 (EC50, nM))",IC50 (MLE12 cells)
"COc1cc(NC(=O)[C@H]2CC[C@@H](n3c(=O)[nH]c4c(C(=O)NCCO)cccc43)CC2)ccc1C [Example 263, N-(2-Hydroxyethyl)-2-oxo-1-[cis-4-[(3-methoxy-4-methylphenyl)carbamoyl]cyclohexyl]-2,3-dihydro-1H-1,3-benzodiazole-4-carboxamide]",> 33000 nM,0.00271 µM,27.2 µM,,
"O=c1[nH]c2c(Br)cccc2n1[C@H]1CC[C@@H](C(=O)Nc2ccc3c(c2)OCO3)CC1 [Example 166, (Cis)-N-(2H-1,3-benzodioxol-5-yl)-4-(4-bromo-2-oxo-2,3-dihydro-1H-1,3-benzodiazol-1-yl)cyclohexane-1-carboxamide]",42700 nM,0.041 µM,16.4 µM,,
"COc1cc(NC(=O)[C@H]2CC[C@@H](n3c(=O)[nH]c4c(NC(=O)CN5CCOCC5)cccc43)CC2)ccc1C [Example 285, Cis-N-(3-methoxy-4-methylphenyl)-4-{4-[2-(morpholin-4-yl)acetamido]-2-oxo-2,3-dihydro-1H-1,3-benzodiazol-1-yl}cyclohexane-1-carboxamide]",> 33000 nM,0.0451 µM,15.9 µM,,
"O=C(Nc1ccc(I)cc1)N1CCC(n2c(=O)[nH]c3c(-n4cccn4)cccc32)CC1 [Example 22, N-(4-iodophenyl)-4-[2-oxo-4-(1H-pyrazol-1-yl)-2,3-dihydro-1H-1,3-benzodiazol-1-yl]piperidine-1-carboxamide]",52700 nM,0.848 µM,13.8 µM,,
"COc1cc(NC(=O)N2CCC(n3c(=O)[nH]c4c(-n5cccn5)cccc43)CC2)ccc1C [Example 117, N-(3-methoxy-4-methylphenyl)-4-[2-oxo-4-(1H-pyrazol-1-yl)-2,3-dihydro-1H-1,3-benzodiazol-1-yl]piperidine-1-carboxamide]",65200 nM,1.36 µM,14.4 µM,,
"COc1cc(NC(=O)[C@H]2CC[C@@H](n3c(=O)[nH]c4c(C(=O)N5CCOCC5)cccc43)CC2)ccc1C [Example 262, Cis-N-(3-methoxy-4-methylphenyl)-4-[4-(morpholine-4-carbonyl)-2-oxo-2,3-dihydro-1H-1,3-benzodiazol-1-yl]cyclohexane-1-carboxamide]",> 100000 nM,0.348 µM,19.7 µM,,
"COc1cc(NC(=O)N2C3CCC2CC(n2c(=O)[nH]c4c(Br)cccc42)C3)ccc1C (stereo not drawn) [Example 85, 3-(4-Bromo-2-oxo-2,3-dihydro-1H-1,3-benzodiazol-1-yl)-N-(3-methoxy-4-methylphenyl)-(endo)-8-azabicyclo[3.2.1]octane-8-carboxamide]",,0.033 µM,,39200 nM,17.2 µM

# More lines, in order of falling EC50 (CCL2; [1]), values ahead:
EC50 (CCL2; [1]),IC50 (OGG1),Compound,"IC50 (MLE12 cells; MLE12, 24 h)","EC50 (CCL2; read-out: CCL2 (EC50, nM))",IC50 (MLE12 cells)
35100 nM,0.0213 µM,"COc1cc(NC(=O)[C@H]2CC[C@@H](n3c(=O)[nH]c4c(N5CCC(NC(C)=O)C5)cccc43)CC2)ccc1C (stereo partly drawn) [Example 313, Cis-4-[4-(3-acetamidopyrrolidin-1-yl)-2-oxo-2,3-dihydro-1H-1,3-benzodiazol-1-yl]-N-(3-methoxy-4-methylphenyl)cyclohexane-1-carboxamide]",19.5 µM,,
32000 nM,0.0125 µM,"COc1cc(NC(=O)[C@H]2CC[C@@H](n3c(=O)[nH]c4c(OC5CCNCC5)cccc43)CC2)ccc1C [Example 307, Cis-N-(3-methoxy-4-methylphenyl)-4-[2-oxo-4-(piperidin-4-yloxy)-2,3-dihydro-1H-1,3-benzodiazol-1-yl]cyclohexane-1-carboxamide]",28.8 µM,,
30800 nM,0.014 µM,"COc1cc(NC(=O)[C@H]2CC[C@@H](n3c(=O)[nH]c4c(NC(=O)CN(C)C)cccc43)CC2)ccc1C [Example 283, Cis-4-{4-[2-(dimethylamino)acetamido]-2-oxo-2,3-dihydro-1H-1,3-benzodiazol-1-yl}-N-(3-methoxy-4-methylphenyl)cyclohexane-1-carboxamide]",19.8 µM,,
30200 nM,0.0389 µM,"O=c1[nH]c2c(Br)cccc2n1[C@H]1CC[C@@H](C(=O)Nc2ccc3c(c2)OCCO3)CC1 [Example 197, Cis-4-(4-bromo-2-oxo-2,3-dihydro-1H-1,3-benzodiazol-1-yl)-N-(2,3-dihydro-1,4-benzodioxin-6-yl)cyclohexane-1-carboxamide]",19.5 µM,,
29000 nM,0.728 µM,"O=C(Nc1ccc(I)cc1)N1CCC(n2c(=O)[nH]c3c(-n4cncn4)cccc32)CC1 [Example 23, N-(4-iodophenyl)-4-[2-oxo-4-(1H-1,2,4-triazol-1-yl)-2,3-dihydro-1H-1,3-benzodiazol-1-yl]piperidine-1-carboxamide]",19.9 µM,,
18700 nM,0.106 µM,"O=c1[nH]c2c(Cl)cccc2n1[C@H]1CC[C@@H](C(=O)Nc2ccc(Cl)cc2)CC1 [Example 150, (Cis)-4-(4-chloro-2-oxo-2,3-dihydro-1H-1,3-benzodiazol-1-yl)-N-(4-chlorophenyl)cyclohexane-1-carboxamide]",7.58 µM,,
16300 nM,0.488 µM,"O=C(Nc1ccc(Cl)c(Cl)c1)N1CCC(n2c(=O)[nH]c3c(Br)cccc32)CC1 [Example 27, 4-(4-Bromo-2-oxo-2,3-dihydro-1H-1,3-benzodiazol-1-yl)-N-(3,4-dichlorophenyl)piperidine-1-carboxamide]",7.74 µM,,
8110 nM,0.251 µM,"COc1cc(NC(=O)[C@H]2CC[C@@H](n3c(=O)[nH]c4c(N(C)CCCNC(=O)OC(C)(C)C)cccc43)CC2)ccc1C [Example 305, tert-Butyl N-{3-[methyl({2-oxo-1-[cis-4-[(3-methoxy-4-methylphenyl)carbamoyl]cyclohexyl]-2,3-dihydro-1H-1,3-benzodiazol-4-yl})amino]propyl}carbamate]",4.88 µM,,
6480 nM,0.471 µM,"CCNC(=O)c1cnn(-c2cccc3c2[nH]c(=O)n3C2CCN(C(=O)Nc3ccc(I)cc3)CC2)c1 [Example 87, 4-{4-[4-(Ethylcarbamoyl)-1H-pyrazol-1-yl]-2-oxo-2,3-dihydro-1H-1,3-benzodiazol-1-yl}-N-(4-iodophenyl)piperidine-1-carboxamide]",5.25 µM,,
3130 nM,0.0335 µM,"COc1cc(NC(=O)[C@H]2CC[C@@H](n3c(=O)[nH]c4c(-c5cccc(OCCN(C)C)c5)cccc43)CC2)ccc1C [Example 225, Cis-4-(4-{3-[2-(dimethylamino)ethoxy]phenyl}-2-oxo-2,3-dihydro-1H-1,3-benzodiazol-1-yl)-N-(3-methoxy-4-methylphenyl)cyclohexane-1-carboxamide]",1.71 µM,,
2040 nM,0.157 µM,"COc1cc(NC(=O)[C@H]2CC[C@@H](n3c(=O)[nH]c4c(OCCN(C)C(=O)OC(C)(C)C)cccc43)CC2)ccc1C [Example 308, tert-Butyl N-methyl-N-[2-({2-oxo-1-[cis-4-[(3-methoxy-4-methylphenyl)carbamoyl]cyclohexyl]-2,3-dihydro-1H-1,3-benzodiazol-4-yl}oxy)ethyl]carbamate]",0.215 µM,,

# Reference: patent US11970474B2, “Substituted benzodiazoles and use thereof in therapy” (THOMAS HELLEDAYS STIFTELSE FÖR MEDICINSK FORSKNING, priority 2018, dated 2024)
